Drawing on the pKa sets of Baltruschat and Czodrowski (2020), this text covers pKa for 70 compounds.

By pKa is commonly meant the pH at which an ionisable group is half protonated. A high value points to a group that holds its proton tightly. On to `CC(CN)/C(N)=N/O` (configuration not stated), for which the pKa (basic group) stood at 9.15.

Compound `CC(=O)Nc1ccc(O)c([N+](=O)[O-])c1` showed a pKa (acidic group) of 6.78.

Where the note is “basic group”, `COc1ccnnc1` displayed a pKa of 3.7.

Regarding `[O-]c1ccc2ccccc2n1`, under “basic group”, the pKa is 11.7.

As to `C/C=C/c1ccc2cccnc2c1O`, the pKa runs as follows: (acidic group) 11.3; (basic group) 4.66.

Under “acidic group”, `O=C(O)c1cc(O)c(O)c(C(=O)O)[o+]1` returned a pKa of 0.6.

As to `CCCC(=N)OCC`, under “basic group”, the pKa is 7.08.

For the compound `c1cc(N2CCCC2)cc[nH+]1`, the pKa (basic group) is -0.53.

In turn, `CC/C(N)=N/O` had a pKa (basic group) of 5.95.

Consider `O=C1NCc2[nH]cnc2N1`, for which the pKa (acidic group) is 11.5.

`CCSCCN` had a pKa (basic group) of 9.48.

Regarding `Cc1cc(-c2cc(C)[nH+][nH]2)[nH]n1`, where the note is “basic group”, the pKa was 0.4.

`C[N+](C)(C)[CH2][Sn]([CH3])([CH3])[CH3]` came in with a pKa (acidic group) of 10.6.

Under “acidic group”, `CC(C)(C)[NH2+]CC(=O)c1ccc(O)cc1` returned a pKa of 7.9.

For `CCC(C)[C@H]([NH3+])C(=O)O` (some centres not stated), the pKa (acidic group) worked out at 2.26.

`O=C(O)C1=C/C=C\C=C/C=C\1`: the pKa (acidic group) was found to be 4.4.

Consider `COc1nc2ccccc2c2ccccc12`, for which the pKa (basic group) stood at 2.38.

For `O=[N+]([O-])c1ccc(S)c([N+](=O)[O-])c1`, the pKa (acidic group) is 3.4.

Take `O=C(O)C12CC3CC(CC(F)(C3)C1)C2`: the pKa (acidic group) amounted to 4.22.

The compound `CCOC(=O)C[N+](=O)[O-]` registered a pKa (acidic group) of 5.82.

With `Nc1cccc2nnccc12`, for the setting “basic group”, the pKa was found to be 2.7.

For the compound `Nc1nc(N)nc(N(CCO)CCO)n1`, under “basic group”, the pKa worked out at 5.1.

Compound `CC(=O)[n+]1cccc(Cl)c1` returned a pKa (acidic group) of 2.98.

Under “acidic group”, `Oc1c(Cl)cc(Cl)c(Cl)c1C[NH+]1CCCCC1` had a pKa of 5.06.

`CCCCN(CC1CO1)CC1CO1` (configuration not stated) showed a pKa (basic group) of 6.91.

For the compound `Cc1cn2nc(-c3ccccc3)ccc2n1`, the pKa (basic group) came to 5.09.

Consider `CNCC#N`, for which, under “basic group”, the pKa came to 5.26.

`O=C1CCc2cc(Cl)ccc2C1` displayed a pKa (acidic group) of 12.5.

In turn, `Cc1ccc2ccc3cccnc3c2n1` yielded a pKa (basic group) of 5.36.

`CCC(C)(N)C(=O)[O-]` (configuration not stated) had a pKa (basic group) of 9.98.

In the case of `CC(S)C(=O)O` (configuration not stated), the pKa (acidic group) turned out to be 3.35.

In turn, `COC(=O)C(N)CCONC(N)=O` (configuration not stated) came in with a pKa (basic group) of 6.95.

On to `CCN(CC)[C@H]1CCC[C@@H]1N(C)C`, for which the pKa (basic group) came out at 9.91.

`Nc1ccncc1C(=O)[O-]`: the pKa (basic group) was determined as 9.1.

In the case of `CCC(=O)NO`, the pKa (acidic group) came out at 9.46.

For the setting “basic group”, `C1CCc2nnc3c(c2CC1)CCCC3` gave a pKa of 6.03.

The compound `O=C(O)Cc1ccoc1` showed a pKa (acidic group) of 4.07.

`O=P(O)(O)C([NH2+]Cc1cccc[nH+]1)c1ccccc1O` (configuration not stated) yielded a pKa (acidic group) of 2.25.

Turning to `COC(=O)c1ccc2ncccc2c1`, the pKa (basic group) was 3.8.

Where the note is “acidic group”, `Fc1cc(F)c(F)c(S)c1F` had a pKa of 2.75.

As for `O=C(O)c1cc(Cl)co1`, the pKa (acidic group) was 2.69.

For the setting “acidic group”, `NC(=O)[C@@H]1CCCN1` showed a pKa of 8.82.

For the compound `N/C(CC[NH3+])=N\O`, the pKa (basic group) was determined as 3.75.

As for `C[C@H](N)CCC(=O)[O-]`, the pKa (basic group) was found to be 10.4.

Under “acidic group”, `CC(=O)C1=CC=CC1` yielded a pKa of 8.84.

For the compound `Nc1c[nH+]c(S)nc1N`, the pKa (acidic group) was found to be 2.96.

For the compound `CCSCCN(CC)CC`, the pKa (basic group) is 9.03.

For `CCc1cnccc1N`, the pKa (basic group) came to 9.17.

For the compound `COC(=O)C[C@@H]1[C@@H](C(=O)[O-])NC[C@H]1C(C)O` (some centres not stated), under “basic group”, the pKa turned out to be 9.41.

With `COc1ccc(-c2cc3cnccc3[nH]2)c(OC)c1`, the pKa (basic group) turned out to be 8.49.

Compound `CCc1cccc(CN(C)C)c1O` yielded a pKa (basic group) of 8.02.

In the case of `N=C(c1ccccc1)c1ccc(O)cc1`, the pKa (basic group) came out at 6.45.

Consider `Cn1cnc2ncnc([O-])c21`, for which the pKa (basic group) amounted to 8.8.

For the compound `CC(C)NCC(O)c1cccc(N)c1` (configuration not stated), the pKa (basic group) turned out to be 9.6.

Consider `NCC[n+]1ccc2ccccc2c1`, for which, where the note is “basic group”, the pKa was 6.85.

In the case of `Cc1ccc2nc3ccc(C)cc3cc2c1`, the pKa (basic group) was 4.5.

`CN(C)c1ccc([NH+](C)C)cc1`: the pKa (basic group) came out at 2.5.

For the compound `OC[C@@H]1O[C@@H]2NC(=S)O[C@@H]2[C@H]1O`, the pKa (acidic group) worked out at 9.48.

Consider `CSc1ccncc1`, for which the pKa (basic group) came to 5.97.

Regarding `CCOC(=S)NC(=O)c1ccccc1`, the pKa (acidic group) turned out to be 7.46.

Regarding `Cc1nc2c(n1C)C(=O)c1ncnc([O-])c1C2=O`, the pKa (basic group) worked out at 6.15.

In turn, `Cc1cc2cccnc2c2ncccc12` registered a pKa (basic group) of 5.26.

On to `COC(=O)C(C)(C)c1c[nH]c(CO)n1`, for which, under “basic group”, the pKa came to 6.18.

`O=C(O)CCCl` came in with a pKa (acidic group) of 4.04.

Consider `Cn1ncc2c(N)nc(Cl)nc21`, for which the pKa (basic group) turned out to be 2.69.

Compound `CCCNCC(=O)O` yielded a pKa (basic group) of 10.

Consider `CSc1nc2ncncc2[nH]1`, for which the pKa amounted to 7.67 (acidic group) and 2.95 (basic group).

In turn, `Nc1nc(N)c2[nH]c(N)[nH+]c2n1` showed a pKa (basic group) of 2.41.

In the case of `CCCCNCCC#N`, the pKa (basic group) turned out to be 8.3.

On to `CC(Cl)CN(C)C` (configuration not stated), for which the pKa (basic group) stood at 8.12.
